The conditions of data set [1]: DMSO-d6, 25–85 °C.
A short description of data set [2]: physchem. The note with it: pH 7.4.
The nature of data set [3]: physchem. The note with it: pH 7.4. The source holds these as a separate data set.
Data set [4] deals with Keap1 (Kelch domain = aa321–aa609) (Homo sapiens, UniProt Q14145). Description: biochemical. The note with it: KD SPR, supplementary CSV; ISA format.

≈ marks a conversion by molar mass, not a printed value. Where “and” joins values, the source holds several entries; their conditions need not be identical. Identical values can stand only once.

For orientation: logD means lipophilicity at a set pH, counting ionised and neutral species. Read a low logD as lower lipophilicity. One may read the solubility as the dissolved amount per volume that the medium holds. Read a high solubility as a readily soluble substance. The term Kd denotes the concentration at which binding is half-saturated. Lower therefore signals a tighter complex.

As for `CC(=O)N1CCC[C@H]1C(=O)N[C@@H]1COC(=O)c2ccccc2COC[C@H](C(=O)N(C)C)NC1=O` [Compound 6, (4R,7R)-7-((S)-1-Acetylpyrrolidine-2-carboxamido)-N,N-dimethyl-6,10-dioxo-1,3,4,5,6,7,8,10-octahydrobenzo[j][1,8]dioxa[4]azacyclododecine-4-carboxamide], in data set [1], the “Δδ/T, NHA (cysteine NH)” value was 3.50 ppb/K; the “Δδ/T, NHB (serine NH)” value is 3.5 ppb/K and 3.53 ppb/K. `CC(=O)N1CCC[C@H]1C(=O)N[C@@H]1COC(=O)c2cccc(-c3ccc(C(=O)O)cc3)c2CSC[C@H](C(=O)N(C)C)NC1=O` [Compound 64, 4-((4S,7R)-7-((S)-1-Acetylpyrrolidine-2-carboxamido)-4-(dimethylcarbamoyl)-6,10-dioxo-1,3,4,5,6,7,8,10-octahydrobenzo[j][1]oxa[8]thia[5]azacyclododecin-14-yl)benzoic Acid]: the log distribution coefficient (logD) in “physchem [2]” is less than -1.5. This compound also had a solubility in “physchem [3]” of more than 850 µM. The like results for `CC(=O)N1CCC[C@H]1C(=O)N[C@@H]1COC(=O)c2cccc(-c3cc(C)c(C(=O)O)c(C)c3)c2CSC[C@H](C(=O)N(C)C)NC1=O` [Compound 77, 4-((4S,7R)-7-((S)-1-Acetylpyrrolidine-2-carboxamido)-4-(dimethylcarbamoyl)-6,10-dioxo-1,3,4,5,6,7,8,10-octahydrobenzo[j][1]oxa[8]thia[5]azacyclododecin-14-yl)-2,6-dimethylbenzoic Acid] were, in that order, less than -1.4 and 965 ± 38 µM (≈ 616 µg/mL). Compound `CC(=O)N1CCC[C@H]1C(=O)N[C@@H]1COC(=O)c2cccc(-c3cc(F)c(C(=O)O)c(F)c3)c2CSC[C@H](C(=O)N(C)C)NC1=O` [Compound 78, 4-((4S,7R)-7-((S)-1-Acetylpyrrolidine-2-carboxamido)-4-(dimethylcarbamoyl)-6,10-dioxo-1,3,4,5,6,7,8,10-octahydrobenzo[j][1]oxa[8]thia[5]azacyclododecin-14-yl)-2,6-difluorobenzoic Acid] came in with a logD in “physchem [2]” of less than -0.8. This compound also yielded a solubility in “physchem [3]” of more than 1000 µM. In data set [4], `COC(=O)CCC(=O)N1CCC[C@H]1C(=O)N[C@@H]1COC(=O)c2ccccc2CSC[C@H](C(=O)N(C)C)NC1=O` [Compound S3] showed a Kd of 17.1 µM. On the same count and under the same terms, the same measure for `CN(C)C(=O)[C@H]1CSCc2ccccc2C(=O)OC[C@@H](NC(=O)[C@@H]2CCCN2C(=O)c2cccn(C)c2=O)C(=O)N1` [Compound S7]: 14.7 µM.

For the compound `CN(C)C(=O)[C@H]1CSCc2ccccc2C(=O)OC[C@@H](NC(=O)[C@@H]2CCCN2C(=O)c2ccccc2NS(C)(=O)=O)C(=O)N1` [Compound S8], the Kd in data set [4] amounted to 15.3 µM. As for `CC(=O)N(CC(=O)N1CCC[C@H]1C(=O)N[C@@H]1COC(=O)c2ccccc2CSC[C@H](C(=O)N(C)C)NC1=O)c1ccccc1` [Compound S11], the Kd in data set [4] is 63.6 µM.

In the case of `CN(C)C(=O)[C@H]1CSCc2ccccc2C(=O)OC[C@@H](NC(=O)[C@@H]2CCCN2C(=O)Cc2cc3ccccc3s2)C(=O)N1` [Compound S13], the Kd in data set [4] was determined as 35.4 µM. Same read-out and setting: then `CN(C)C(=O)[C@H]1CSCc2ccccc2C(=O)OC[C@@H](NC(=O)[C@@H]2CCCN2C(=O)Cc2cccnc2)C(=O)N1` [Compound S16], with 51 µM. The compound `CN(C)C(=O)[C@H]1CSCc2ccccc2C(=O)OC[C@@H](NC(=O)[C@@H]2CCCN2C(=O)c2ccccc2-n2cnnn2)C(=O)N1` [Compound S21] yielded a Kd in data set [4] of 13 µM. Against the preceding compound, the Kd is about 3.9-fold lower.
